Like-named read-outs stand apart in the source and are kept apart here.
What was measured:
[1] = biological target: hNAMPT protein (Homo sapiens (Human), UniProt P43490); experiment: NAMPT enzyme assay (TR-FRET/HTRF, BodiPY ligand, anti 6His-Tb); format: binding; conditions: for IC50: NAMPT IC50 range class, read-out: IC50; for inhibition at 1 µM: read-out: Percent Inhibition
Summary of the method: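 TR-FRET binding assay in which His-tagged human NAMPT with anti-6His-Tb is displaced by compound from a BodiPY ligand, incubated 1 h at rt in the dark. Excitation was at 320 nm, with the 520/486 nm emission ratio read. IC50 was fitted from inhibition relative to DMSO controls.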

[2] = test system: PC3 cells; experiment: PC3 growth inhibition (Cell-titer glo, 72 hours); format: cell-based; conditions: Homo sapiens, PC-3, PC3 cells, 72 hours, Cell-titer glo, read-out: Percent Inhibition (PC3 growth inhibition); for inhibition at 1 µM: compound concentration 1 μM; for inhibition at 1.667 µM: compound concentration 1.667 μM
Summary of the method: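 PC3 cells in RPMI1640 seeded overnight at 37 °C, 5% CO2, then exposed to compound diluted in AIM serum-free medium for 72 h. Viability by CellTiter-Glo luminescence vs DMSO controls; single-concentration % remaining viability (1 μM or 1.667 μM), or GI50/LD50 from curves.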

Chain of hNAMPT protein (P43490 whole entry): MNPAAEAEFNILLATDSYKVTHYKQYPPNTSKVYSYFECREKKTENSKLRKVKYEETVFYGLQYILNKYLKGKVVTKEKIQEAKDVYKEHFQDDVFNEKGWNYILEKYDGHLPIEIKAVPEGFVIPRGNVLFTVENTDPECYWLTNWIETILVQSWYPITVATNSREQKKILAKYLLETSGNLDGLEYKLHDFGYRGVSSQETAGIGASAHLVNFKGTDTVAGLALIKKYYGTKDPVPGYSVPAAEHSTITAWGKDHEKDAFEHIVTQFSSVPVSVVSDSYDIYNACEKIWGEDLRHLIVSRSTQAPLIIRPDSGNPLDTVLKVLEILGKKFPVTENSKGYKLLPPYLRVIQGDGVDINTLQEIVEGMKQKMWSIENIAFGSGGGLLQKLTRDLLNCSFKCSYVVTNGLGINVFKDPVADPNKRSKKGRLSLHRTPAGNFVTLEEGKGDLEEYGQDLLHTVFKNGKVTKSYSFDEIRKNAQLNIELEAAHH

Row | Structure (SMILES) | IC50 [1] [nM] | inhibition at 1 µM ([1]; compound concentration 1 μM) [%] | inhibition at 1 µM [2] [%] | inhibition at 1.667 µM [2] [%] | inhibition at 1 µM [1] [%]
1 | O=C(NCCCn1ccnc1)c1ccc2nc(N3CCC(O)CC3)c(-c3ccccc3)nc2c1 [Compound I-105, 2-(4-hydroxypiperidin-1-yl)-N-[3-(1H-imidazol-1-yl)propyl]-3-phenylquinoxaline-6-carboxamide] | < 100 | 92 | -7 | – | –
2 | N#CC1CCN(c2nc3ccc(C(=O)NCCCn4ccnc4)cc3nc2-c2ccccc2)C1 (stereo not drawn) [Compound I-106, 2-(3-cyanopyrrolidin-1-yl)-N-[3-(1H-imidazol-1-yl)propyl]-3-phenylquinoxaline-6-carboxamide] | 500 to 1000 | 60 | -5 | – | –
3 | O=C(NCCCn1ccnc1)c1ccc2nc(-c3ccco3)c(-c3ccco3)nc2c1 [Compound I-107, 2,3-di(2-furyl)-N-[3-(1H-imidazol-1-yl)propyl]quinoxaline-6-carboxamide] | 1000 to 2000 | 47 | 102 | – | –
4 | Cn1ccc(CCNC(=O)c2ccc3nc(-c4ccc(F)cc4)c(-c4ccc(F)cc4)nc3c2)n1 [Compound I-108, 2,3-bis(4-fluorophenyl)-N-[2-(1-methyl-1H-pyrazol-3-yl)ethyl]quinoxaline-6-carboxamide] | 1000 to 2000 | 44 | 93 | – | –
5 | COc1nc2ccc(C(=O)NCCCc3ncc[nH]3)cc2nc1-c1ccc(Cl)cc1 [Compound I-109, 3-(4-chlorophenyl)-N-[3-(1H-imidazol-2-yl)propyl]-2-methoxyquinoxaline-6-carboxamide] | < 100 | 97 | – | 36 | –
6 | O=C(NCCCc1ncc[nH]1)c1ccc2nc(OC3CCOCC3)c(-c3ccc(Cl)cc3)nc2c1 [Compound I-111, 3-(4-chlorophenyl)-N-[3-(1H-imidazol-2-yl)propyl]-2-(tetrahydro-2H-pyran-4-yloxy)quinoxaline-6-carboxamide] | < 100 | 99 | – | 2 | –
7 | O=C(NCCCn1ccnc1)c1ccc2nc(N3CCC(N4CCNCC4)CC3)c(-c3ccccc3)nc2c1 [Compound I-112, N-[3-(1H-imidazol-1-yl)propyl]-3-phenyl-2-[4-(piperazin-1-yl)piperidin-1-yl]quinoxaline-6-carboxamide] | < 100 | 100 | -1 | – | –
8 | CC1(C)CN(c2nc3cc(C(=O)NCCCn4ccnc4)ccc3nc2-c2ccccc2)CCO1 [Compound I-113, 3-(2,2-dimethylmorpholin-4-yl)-N-[3-(1H-imidazol-1-yl)propyl]-2-phenylquinoxaline-6-carboxamide] | 500 to 1000 | 64 | -8 | – | –
9 | O=C(NCCOc1cccnc1)c1ccc2nc(N3CCC(O)CC3)c(-c3ccc(F)cc3)nc2c1 [Compound I-114, 3-(4-Fluorophenyl)-2-(4-hydroxypiperidin-1-yl)-N-[2-(pyridin-3-yloxy)ethyl]quinoxaline-6-carboxamide] | < 100 | – | – | 2 | > 99
10 | C[C@@H]1CN(c2nc3ccc(C(=O)NCCCn4ccnc4)cc3nc2-c2ccccc2)C[C@H](C)O1 [Compound I-115, cis-2-[(2R,6S)-2,6-dimethylmorpholin-4-yl]-N-[3-(1H-imidazol-1-yl)propyl]-3-phenylquinoxaline-6-carboxamide] | < 100 | 100 | -8 | – | –
11 | O=C(NCCCc1ncc[nH]1)c1ccc2nc(N3CCCC3)c(-c3ccc(Cl)cc3)nc2c1 [Compound I-116, 3-(4-chlorophenyl)-N-[3-(1H-imidazol-2-yl)propyl]-2-(pyrrolidin-1-yl)quinoxaline-6-carboxamide] | < 100 | 98 | – | 2 | –
12 | O=C(NCCc1cccnc1)c1ccc2nc(-c3ccco3)c(-c3ccco3)nc2c1 [Compound I-117, 2,3-di(2-furyl)-N-[2-(pyridin-3-yl)ethyl]quinoxaline-6-carboxamide] | 2000 to 10000 | 22 | 97 | – | –
13 | O=C(NCCc1c[nH]cn1)c1ccc2nc(-c3ccccc3)c(-c3ccccc3)nc2c1 [Compound I-118, N-[2-(1H-imidazol-4-yl)ethyl]-2,3-diphenylquinoxaline-6-carboxamide] | 2000 to 10000 | 29 | 85 | – | –
14 | Cn1cc(-c2nc3ccc(C(=O)NCCCn4ccnc4)cc3nc2-c2ccccc2)cn1 [Compound I-119, N-[3-(1H-imidazol-1-yl)propyl]-2-(1-methyl-1H-pyrazol-4-yl)-3-phenylquinoxaline-6-carboxamide] | 500 to 1000 | 58 | -8 | – | –
15 | NCc1cccc(-c2nc3cc(C(=O)NCCCn4ccnc4)ccc3nc2-c2ccccc2)c1 [Compound I-120, 3-[3-(Aminomethyl)phenyl]-N-[3-(1H-imidazol-1-yl)propyl]-2-phenylquinoxaline-6-carboxamide] | 2000 to 10000 | – | 1 | – | 47
16 | O=C(c1ccc2nc(-c3ccc(F)cc3)c(-c3ccc(F)cc3)nc2c1)N1CCc2nc[nH]c2C1 [Compound I-121, [2,3-bis(4-fluorophenyl)quinoxalin-6-yl](3,4,6,7-tetrahydro-5H-imidazo[4,5-c]pyridin-5-yl)methanone] | 2000 to 10000 | 12 | 99 | – | –
17 | O=C(NCCc1ncc[nH]1)c1ccc2nc(-c3ccc(F)cc3)c(-c3ccc(F)cc3)nc2c1 [Compound I-122, 2,3-Bis(4-fluorophenyl)-N-[2-(1H-imidazol-2-yl)ethyl]quinoxaline-6-carboxamide] | 2000 to 10000 | 60 | – | 4 | –
18 | NC(=O)c1cn2c(n1)CN(C(=O)c1ccc3nc(-c4ccc(F)cc4)c(-c4ccc(F)cc4)nc3c1)CC2 [Compound I-123, 7-{[2,3-bis(4-fluorophenyl)quinoxalin-6-yl]carbonyl}-5,6,7,8-tetrahydroimidazo[1,2-a]pyrazine-2-carboxamide] | 2000 to 10000 | 31 | 96 | – | –
19 | O=C(NCCCn1ccnc1)c1ccc2nc(-c3ccccc3)c(N3CCCC3)nc2c1 [Compound I-124, N-[3-(1H-imidazol-1-yl)propyl]-2-phenyl-3-(pyrrolidin-1-yl)quinoxaline-6-carboxamide] | 1000 to 2000 | 38 | 27 | – | –
20 | CS(=O)(=O)N1CCN(c2nc3ccc(C(=O)NCCCn4ccnc4)cc3nc2-c2ccccc2)CC1 [Compound I-125, N-[3-(1H-imidazol-1-yl)propyl]-2-[4-(methylsulfonyl)piperazin-1-yl]-3-phenylquinoxaline-6-carboxamide] | 100 to 500 | 73 | -7 | – | –
21 | CN(c1nc2cc(C(=O)NCCCn3ccnc3)ccc2nc1-c1ccccc1)C1CC1 [Compound I-126, 3-[cyclopropyl(methyl)amino]-N-[3-(1H-imidazol-1-yl)propyl]-2-phenylquinoxaline-6-carboxamide] | 2000 to 10000 | 12 | 93 | – | –
22 | CN1CCN(c2nc3cc(C(=O)NCCCn4ccnc4)ccc3nc2-c2ccccc2)CC1=O [Compound I-127, N-[3-(1H-imidazol-1-yl)propyl]-3-(4-methyl-3-oxopiperazin-1-yl)-2-phenylquinoxaline-6-carboxamide] | 2000 to 10000 | 16 | 95 | – | –
23 | CN1CCN(c2nc3ccc(C(=O)NCCCn4ccnc4)cc3nc2-c2ccccc2)CC1 [Compound I-128, N-[3-(1H-imidazol-1-yl)propyl]-2-(4-methylpiperazin-1-yl)-3-phenylquinoxaline-6-carboxamide] | 500 to 1000 | 60 | -7 | – | –
24 | CS(=O)(=O)N1CCN(c2nc3cc(C(=O)NCCCn4ccnc4)ccc3nc2-c2ccccc2)CC1 [Compound I-129, N-[3-(1H-imidazol-1-yl)propyl]-3-[4-(methylsulfonyl)piperazin-1-yl]-2-phenylquinoxaline-6-carboxamide] | 100 to 500 | 70 | -6 | – | –
25 | O=C(NCCc1ccccn1)c1ccc2nc(N3CCC(C4CCNCC4)CC3)c(-c3ccccc3)nc2c1 [Compound I-130, 2-(4,4′-Bipiperidin-1-yl)-3-phenyl-N-[2-(pyridin-2-yl)ethyl]quinoxaline-6-carboxamide] | 100 to 500 | – | 93 | – | 81
26 | N#Cc1ccc(-c2nc3ccc(C(=O)NCCCn4ccnc4)cc3nc2-c2ccccc2)cc1 [Compound I-131, 2-(4-cyanophenyl)-N-[3-(1H-imidazol-1-yl)propyl]-3-phenylquinoxaline-6-carboxamide] | 500 to 1000 | 64 | -8 | – | –
27 | O=C(NCc1ccc2[nH]cnc2c1)c1ccc2nc(N3CCOCC3)c(-c3ccc(F)cc3)nc2c1 [Compound I-132, N-(1H-Benzimidazol-5-ylmethyl)-3-(4-fluorophenyl)-2-(morpholin-4-yl)quinoxaline-6-carboxamide] | 500 to 1000 | – | – | 2 | 56
28 | O=C(NCc1ccc2cn[nH]c2c1)c1ccc2nc(N3CCCCC3)c(-c3ccc(F)cc3)nc2c1 [Compound I-133, 3-(4-fluorophenyl)-N-(1H-indazol-6-ylmethyl)-2-(piperidin-1-yl)quinoxaline-6-carboxamide] | 100 to 500 | 68 | – | 3 | –

From patent US10144742B2 (Millennium Pharmaceuticals, Inc., priority 2014, dated 2018)
